Calls of active or inactive are those of the source. No rule for the calls is given here.
System: CCRIS mutagenicity, Ames/micronucleus/aberration tests
Assay: CCRIS mutagenicity studies
[1] = Test System: AMES SALMONELLA TYPHIMURIUM, Strain/Indicator: TA98, Metabolic Activation: NONE, Method: PREINCUBATION
[2] = Test System: AMES SALMONELLA TYPHIMURIUM, Strain/Indicator: TA100, Metabolic Activation: NONE, Method: PREINCUBATION
[3] = Test System: AMES SALMONELLA TYPHIMURIUM, Strain/Indicator: TA98, Metabolic Activation: NONE, Method: STANDARD PLATE
[4] = Test System: AMES SALMONELLA TYPHIMURIUM, Strain/Indicator: TA98, Metabolic Activation: RAT, LIVER, S-9, AROCLOR 1254, Method: STANDARD PLATE
[5] = Test System: AMES SALMONELLA TYPHIMURIUM, Strain/Indicator: TA100, Metabolic Activation: NONE, Method: STANDARD PLATE
[6] = Test System: AMES SALMONELLA TYPHIMURIUM, Strain/Indicator: TA100, Metabolic Activation: RAT, LIVER, S-9, AROCLOR 1254, Method: STANDARD PLATE

SMILES: CCCCCCCCCCCCCCC1CO1 (centres undefined)
- mutagenic call (Test System: AMES SALMONELLA TYPHIMURIUM, Strain/Indicator: TA98, Metabolic Activation: HAMSTER, LIVER, S-9, AROCLOR 1254 (10%), Method: PREINCUBATION): inactive; negative
- mutagenic call [1]: inactive; negative
- mutagenic call (Test System: AMES SALMONELLA TYPHIMURIUM, Strain/Indicator: TA98, Metabolic Activation: RAT, LIVER, S-9, AROCLOR 1254 (10%), Method: PREINCUBATION): inactive; negative
- mutagenic call (Test System: AMES SALMONELLA TYPHIMURIUM, Strain/Indicator: TA100, Metabolic Activation: HAMSTER, LIVER, S-9, AROCLOR 1254 (10%), Method: PREINCUBATION): inactive; negative
- mutagenic call [2]: inactive; negative
- mutagenic call (Test System: AMES SALMONELLA TYPHIMURIUM, Strain/Indicator: TA100, Metabolic Activation: RAT, LIVER, S-9, AROCLOR 1254 (10%), Method: PREINCUBATION): inactive; negative
- mutagenic call (Test System: AMES SALMONELLA TYPHIMURIUM, Strain/Indicator: TA1535, Metabolic Activation: HAMSTER, LIVER, S-9, AROCLOR 1254 (10%), Method: PREINCUBATION): inactive; negative
- mutagenic call (Test System: AMES SALMONELLA TYPHIMURIUM, Strain/Indicator: TA1535, Metabolic Activation: NONE, Method: PREINCUBATION): inactive; negative
- mutagenic call (Test System: AMES SALMONELLA TYPHIMURIUM, Strain/Indicator: TA1535, Metabolic Activation: RAT, LIVER, S-9, AROCLOR 1254 (10%), Method: PREINCUBATION): inactive; negative
- mutagenic call (Test System: AMES SALMONELLA TYPHIMURIUM, Strain/Indicator: TA1537, Metabolic Activation: HAMSTER, LIVER, S-9, AROCLOR 1254 (10%), Method: PREINCUBATION): inactive; negative
- mutagenic call (Test System: AMES SALMONELLA TYPHIMURIUM, Strain/Indicator: TA1537, Metabolic Activation: NONE, Method: PREINCUBATION): inactive; negative
- mutagenic call (Test System: AMES SALMONELLA TYPHIMURIUM, Strain/Indicator: TA1537, Metabolic Activation: RAT, LIVER, S-9, AROCLOR 1254 (10%), Method: PREINCUBATION): inactive; negative

SMILES: O=C1c2c(O)ccc3c2[C@H](c2ccc(O)c4c2[C@H]3[C@H]2O[C@H]2C4=O)[C@H]2O[C@@H]12
- mutagenic call [3]: active; positive
- mutagenic call [4]: active; positive
- mutagenic call (Test System: AMES SALMONELLA TYPHIMURIUM, Strain/Indicator: TA98, Method: STANDARD PLATE): active; positive
- mutagenic call [5]: active; positive
- mutagenic call [6]: active; positive
- mutagenic call (Test System: AMES SALMONELLA TYPHIMURIUM, Strain/Indicator: TA1537, Metabolic Activation: NONE, Method: STANDARD PLATE): active; positive
- mutagenic call (Test System: AMES SALMONELLA TYPHIMURIUM, Strain/Indicator: TA1537, Metabolic Activation: RAT, LIVER, S-9, AROCLOR 1254, Method: STANDARD PLATE): active; positive

SMILES: CCN(CC)CCOc1ccc(C(=C(Cl)c2ccccc2)c2ccccc2)cc1
- mutagenic call [1]: inactive; negative
- mutagenic call (Test System: AMES SALMONELLA TYPHIMURIUM, Strain/Indicator: TA98, Metabolic Activation: RAT LIVER S-9, 3-METHYLCHOLANTHRENE, Method: PREINCUBATION): active; positive
- mutagenic call (Test System: AMES SALMONELLA TYPHIMURIUM, Strain/Indicator: TA98, Metabolic Activation: RAT LIVER S-9, AROCLOR 1254, Method: PREINCUBATION): active; positive
- mutagenic call (Test System: AMES SALMONELLA TYPHIMURIUM, Strain/Indicator: TA98, Metabolic Activation: RAT LIVER S-9, PHENOBARBITAL, Method: PREINCUBATION): active; positive
- mutagenic call (Test System: AMES SALMONELLA TYPHIMURIUM, Strain/Indicator: TA98, Metabolic Activation: RAT LIVER S-9, STREPTOZOCINE, Method: PREINCUBATION): active; positive

SMILES: Cn1c([N+](=O)[O-])nc2c3cccnc3ccc21
- mutagenic call (Test System: AMES SALMONELLA TYPHIMURIUM, Strain/Indicator: TA98(1,8-DNP6), Metabolic Activation: NONE, Method: PREINCUBATION): inactive; negative
- mutagenic call [1]: active; positive
- mutagenic call (Test System: AMES SALMONELLA TYPHIMURIUM, Strain/Indicator: YG1024, Metabolic Activation: NONE, Method: PREINCUBATION): active; positive
- mutagenic call (Test System: E. COLI, Strain/Indicator: CC109, Metabolic Activation: NONE, Method: STANDARD PLATE): active; positive
- mutagenic call (Test System: E. COLI, Strain/Indicator: CC109PYG219, Metabolic Activation: NONE, Method: STANDARD PLATE): active; positive
- mutagenic call (Test System: E. COLI, Strain/Indicator: DJ3107, Metabolic Activation: NONE, Method: STANDARD PLATE): inactive; negative
- mutagenic call (Test System: E. COLI, Strain/Indicator: DJ3108, Metabolic Activation: NONE, Method: STANDARD PLATE): active; positive
- mutagenic call (Test System: E. COLI, Strain/Indicator: DJ3109, Metabolic Activation: NONE, Method: STANDARD PLATE): active; positive
- mutagenic call (Test System: E. COLI, Strain/Indicator: DJ3110, Metabolic Activation: NONE, Method: STANDARD PLATE): inactive; negative
- mutagenic call (Test System: E. COLI, Strain/Indicator: DJ3111, Metabolic Activation: NONE, Method: STANDARD PLATE): inactive; negative
- mutagenic call (Test System: E. COLI, Strain/Indicator: DJ3207, Metabolic Activation: NONE, Method: STANDARD PLATE): inactive; negative
- mutagenic call (Test System: E. COLI, Strain/Indicator: DJ3208, Metabolic Activation: NONE, Method: STANDARD PLATE): active; positive
- mutagenic call (Test System: E. COLI, Strain/Indicator: DJ3209, Metabolic Activation: NONE, Method: STANDARD PLATE): active; positive
- mutagenic call (Test System: E. COLI, Strain/Indicator: DJ3211, Metabolic Activation: NONE, Method: STANDARD PLATE): inactive; negative

SMILES: CON(C)C(=O)Nc1ccc(Br)cc1
- mutagenic call [3]: inactive; negative
- mutagenic call [4]: inactive; negative
- mutagenic call [5]: inactive; negative
- mutagenic call [6]: inactive; negative

SMILES: [N-]=[N+]=NC[C@@H](CO)Cc1ccccc1
- mutagenic call (Test System: AMES SALMONELLA TYPHIMURIUM, Strain/Indicator: TA100, Metabolic Activation: RAT, LIVER, S-9, PCB, Method: PREINCUBATION): active; positive

SMILES: [N-]=[N+]=NC[C@@H](O)[C@H](O)[C@H](O)[C@@H](O)C(=O)O
- mutagenic call [3]: inactive; negative
- mutagenic call [5]: active; positive

SMILES: CC(=O)ON(C(C)=O)c1ccc(Oc2ccccc2)cc1
- mutagenic call (Test System: AMES SALMONELLA TYPHIMURIUM, Strain/Indicator: TA100, Metabolic Activation: GUINEA PIG, LIVER, S-9, KANECLOR 500, Method: STANDARD PLATE): active; positive

SMILES: Nc1ccc2snc(Cl)c2c1
- mutagenic call [5]: active; positive

SMILES: C1=CC2OC2c2ncccc21 (centres undefined)
- mutagenic call [5]: inactive; negative
- mutagenic call (Test System: AMES SALMONELLA TYPHIMURIUM, Strain/Indicator: TA100, Metabolic Activation: RAT, LIVER, S-9, AROCLOR 1254 (10% OR 20%), Method: STANDARD PLATE): active; positive

SMILES: C/C(O)=C(\N=O)C(=O)N(c1ccccc1)N(C)N=O
- mutagenic call [1]: active; positive
- mutagenic call (Test System: AMES SALMONELLA TYPHIMURIUM, Strain/Indicator: TA98, Method: PREINCUBATION): active; positive
- mutagenic call [2]: active; positive
- mutagenic call (Test System: AMES SALMONELLA TYPHIMURIUM, Strain/Indicator: TA100, Method: PREINCUBATION): active; positive

SMILES: Nc1ccc2ccc3cc4ccccc4c4ccc1c2c34
- mutagenic call (Test System: AMES SALMONELLA TYPHIMURIUM, Strain/Indicator: TA98(1,8-DNP6), Metabolic Activation: NONE): active; positive
- mutagenic call (Test System: AMES SALMONELLA TYPHIMURIUM, Strain/Indicator: TA98(1,8-DNP6), Metabolic Activation: RAT, LIVER, S-9, AROCLOR 1254): active; positive
- mutagenic call (Test System: AMES SALMONELLA TYPHIMURIUM, Strain/Indicator: TA98(NR), Metabolic Activation: NONE): active; positive
- mutagenic call (Test System: AMES SALMONELLA TYPHIMURIUM, Strain/Indicator: TA98(NR), Metabolic Activation: RAT, LIVER, S-9, AROCLOR 1254): active; positive
- mutagenic call (Test System: AMES SALMONELLA TYPHIMURIUM, Strain/Indicator: TA98, Metabolic Activation: NONE): active; positive
- mutagenic call (Test System: AMES SALMONELLA TYPHIMURIUM, Strain/Indicator: TA98, Metabolic Activation: RAT, LIVER, S-9, AROCLOR 1254): active; positive
